Data on 13 molecules can be found in ChEMBL document CHEMBL1133068, “Novel 2,2-dioxide-4,4-disubstituted-1,3-H-2,1,3-benzothiadiazines as non-nucleoside reverse transcriptase inhibitors” (Bioorg Med Chem Lett, 2000).

Structures can show the parent of a compound that is named as a salt. Active and inactive are the calls of the source. The rule behind the calls is not given here.

Assay [1] in a line: The compound was evaluated for antiviral activity using whole cell assay. The format is functional.
Assay [2] deals with T1, Human immunodeficiency virus type 1 reverse transcriptase (Human immunodeficiency virus 1, UniProt Q72547). The assay can be described thus: The compound was evaluated for the inhibition of HIV-1 reverse transcriptase; Inactive.
The nature of assay [3]: The compound was evaluated for antiviral activity using whole cell assay; Inactive. The format is functional.
Assay [4] has as its target T1, Human immunodeficiency virus type 1 reverse transcriptase. The assay can be described thus: The compound was evaluated for the inhibition of HIV-1 reverse transcriptase.

For `CC(C)Nc1cccnc1N1CCN(C(=O)c2cc3cc(NS(C)(=O)=O)ccc3[nH]2)CC1` [DELAVIRDINE MESYLATE], in assay [1], it took 50 nM to reach the 90% level (IC90).

`CCC#CC1(C(C)C)NS(=O)(=O)Nc2ccc(Cl)cc21` (stereo not drawn) came in with an IC90 in assay [1] of 961 nM. Further, the IC50 entry in assay [2] was “Not Active”.

Consider `O=S1(=O)Nc2ccc(Cl)cc2C(C#Cc2ccccn2)(C2CC2)N1` (stereo not drawn), for which the IC90 entry in assay [3] was “inactive”. Moreover, the IC50 result in assay [2] was “Not Active”.

On to `CC(C)C#CC1(C2CC2)NS(=O)(=O)Nc2ccc(Cl)cc21` (stereo not drawn), for which the 90% effect level in assay [1] (IC90) was put at 182 nM. 4.63 µM corresponded to half-maximal inhibition in assay [4] (IC50).

Take `O=S1(=O)Nc2ccc(Cl)cc2C(C#Cc2ccccc2)(C2CC2)N1` (stereo not drawn): the IC90 entry in assay [3] is “inactive”. Moreover, the IC50 entry in assay [2] is reported as “Not Active”.

As for `O=S1(=O)Nc2ccc(Cl)cc2C(C#CC2CC2)(C2CC2)N1` (stereo not drawn), the IC90 in assay [1] amounted to 279 nM. In assay [4], this molecule returned an IC50 of 35.9 µM.

In turn, `CC(C)C#CC1(C(C)C)NS(=O)(=O)Nc2ccc(Cl)cc21` (stereo not drawn) returned an IC90 in assay [1] of 643 nM. This molecule came in with a concentration for half-maximal inhibition (IC50) in assay [4] of 0.137 µM.

In assay [1], `O=C1Nc2ccc(Cl)cc2[C@@](C#CC2CC2)(C(F)(F)F)N1` returned an IC90 of 2 nM. Moreover, the IC50 in assay [4] worked out at 0.031 µM.

On to `O=S1(=O)Nc2ccc(F)c(F)c2C(C#CC2CC2)(C(F)(F)F)N1` (stereo not drawn), for which the IC90 in assay [1] was determined as 284 nM. For the same molecule, inhibition in assay [4] was half-maximal at 24.7 µM (IC50).

On to `Cc1ccnc2c1NC(=O)c1cccnc1N2C1CC1` [NEVIRAPINE], for which the IC90 in assay [1] came out at 37 nM.

As to `CCC#CC1(C2CC2)NS(=O)(=O)Nc2ccc(Cl)cc21` (stereo not drawn), it took 611 nM to reach the 90% level in assay [1] (IC90). Also, in assay [2], the IC50 result is “Not Active”.

In assay [1], `CC(C)C1(C#CC2CC2)NS(=O)(=O)Nc2ccc(Cl)cc21` (stereo not drawn) registered an IC90 of 677 nM. In addition, in assay [2], the IC50 result is “Not Active”.

Molecule `O=C1Nc2ccc(Cl)cc2[C@@](C#CC2CC2)(C(F)(F)F)O1` [EFAVIRENZ] had an IC90 in assay [1] of 1.7 nM.

In general, IC90 refers to the point of the concentration-response curve where the effect stands at 90%. In general, IC50 refers to the concentration that gives 50% inhibition.
